Reference: PubChem BioAssay (NCI)
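How tested: cells in 96-well plates exposed to compound for 48 hours at five concentrations. GI50 = concentration required for 50% inhibition of growth. TGI: total growth inhibition.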

Legend:
Experiment in all cases: inhibition of tumour cell growth, NCI panel, 48 h
[1] = system: M14 melanoma
[2] = system: HCT-116 colon
[3] = system: OVCAR-5 ovarian
[4] = system: LOX IMVI melanoma
[5] = system: K-562 leukemia
[6] = system: SF-268 CNS
[7] = system: UACC-62 melanoma
[8] = system: IGROV1 ovarian
[9] = system: MOLT-4 leukemia
[10] = system: SNB-19 CNS
[11] = system: HOP-62 NSCLC
[12] = system: EKVX NSCLC
[13] = system: ACHN renal
[14] = system: HS 578T breast
[15] = system: TK-10 renal
[16] = system: 786-0 renal
[17] = system: HCC-2998 colon
[18] = system: HT29 colon
[19] = system: KM12 colon
[20] = system: SN12C renal
[21] = system: SR leukemia
[22] = system: COLO 205 colon
[23] = system: OVCAR-4 ovarian
[24] = system: CCRF-CEM leukemia
[25] = system: T-47D breast
[26] = system: SK-MEL-28 melanoma
[27] = system: MCF7 breast
[28] = system: PC-3 prostate
[29] = system: MDA-MB-468 breast
[30] = system: HOP-92 NSCLC
[31] = system: SF-539 CNS
[32] = system: DU-145 prostate
[33] = system: HCT-15 colon
[34] = system: NCI-H23 lung
[35] = system: OVCAR-8 ovarian
[36] = system: A498 renal
[37] = system: SK-MEL-5 melanoma
[38] = system: SF-295 CNS
[39] = system: UACC-257 melanoma
[40] = system: MALME-3M melanoma
[41] = system: OVCAR-3 ovarian
[42] = system: NCI-H226 lung
[43] = system: NCI-H522 lung
[44] = system: CAKI-1 renal
[45] = system: NCI/ADR-RES ovarian
[46] = system: BT-549 breast
[47] = system: NCI-H460 lung
[48] = system: RXF 393 renal
[49] = system: A549 NSCLC
[50] = system: HL-60(TB) leukemia
[51] = system: MDA-MB-435
[52] = system: SK-OV-3 ovarian
[53] = system: RPMI-8226 leukemia
[54] = system: U251 CNS
[55] = system: SW-620 colon
[56] = system: MDA-MB-231 breast
[57] = system: SNB-75 CNS
[58] = system: UO-31 renal
[59] = system: SK-MEL-2 melanoma

SMILES: c1n[nH]cc1-c1nc2ccc3[nH]ncc3c2c2c1CC1(CCOCC1)CC2
- GI50 [1]: 6.24 µM
- TGI [1]: 20.9 µM
- GI50 [2]: 4.62 µM
- TGI [2]: > 100 µM
- GI50 [3]: 27.7 µM
- TGI [3]: 92.3 µM
- GI50 [4]: 8.51 µM
- TGI [4]: 21.5 µM
- GI50 [5]: 16.9 µM
- TGI [5]: > 100 µM
- GI50 [6]: 16.6 µM
- TGI [6]: 41.2 µM
- GI50 [7]: 4.37 µM
- TGI [7]: 15.8 µM
- GI50 [8]: 19.8 µM
- TGI [8]: 69.6 µM
- GI50 [9]: 13.4 µM
- TGI [9]: 42.7 µM
- GI50 [10]: 19.3 µM
- TGI [10]: 71.2 µM
- GI50 [11]: 15.4 µM
- TGI [11]: 43.3 µM
- GI50 [12]: 19.2 µM
- TGI [12]: 54.4 µM
- GI50 [13]: 7.72 µM
- TGI [13]: > 100 µM
- GI50 [14]: 7.74 µM
- TGI [14]: 37.5 µM
- GI50 [15]: 8.2 µM
- TGI [15]: > 100 µM
- GI50 [16]: 14.9 µM
- TGI [16]: 43.1 µM
- GI50 [17]: 12.1 µM
- TGI [17]: 32 µM
- GI50 [18]: 12.5 µM
- TGI [18]: > 100 µM
- GI50 [19]: 19.2 µM
- TGI [19]: 47.8 µM
- GI50 [20]: 13.3 µM
- TGI [20]: 44.3 µM
- GI50 [21]: 3.33 µM
- TGI [21]: 15.2 µM
- GI50 [22]: 5.62 µM
- TGI [22]: 22.2 µM
- GI50 [23]: 23.4 µM
- TGI [23]: 89.2 µM
- GI50 [24]: 22.1 µM
- TGI [24]: 80.9 µM
- GI50 [25]: 13 µM
- TGI [25]: 55.8 µM
- GI50 [26]: 12.1 µM
- TGI [26]: 25.6 µM
- GI50 [27]: 13 µM
- TGI [27]: 40.9 µM
- GI50 [28]: 16.7 µM
- TGI [28]: > 100 µM
- GI50 [29]: 10.7 µM
- TGI [29]: 23.2 µM
- GI50 [30]: 13.4 µM
- TGI [30]: 64.1 µM
- GI50 [31]: 13.5 µM
- TGI [31]: 27.3 µM
- GI50 [32]: 17.9 µM
- TGI [32]: > 100 µM
- GI50 [33]: 19.8 µM
- TGI [33]: > 100 µM
- GI50 [34]: 13.8 µM
- TGI [34]: 28.8 µM
- GI50 [35]: 13.3 µM
- TGI [35]: 32.6 µM
- GI50 [36]: 6.66 µM
- TGI [36]: 22.4 µM
- GI50 [37]: 14.8 µM
- TGI [37]: 28.7 µM
- GI50 [38]: 24.9 µM
- TGI [38]: 71.1 µM
- GI50 [39]: 14.7 µM
- TGI [39]: 36.5 µM
- GI50 [40]: 14.1 µM
- TGI [40]: 27.9 µM
- GI50 [41]: 16.8 µM
- TGI [41]: 65.3 µM
- GI50 [42]: 13.9 µM
- TGI [42]: 39.2 µM
- GI50 [43]: 4.84 µM
- TGI [43]: 21.2 µM
- GI50 [44]: 17.3 µM
- TGI [44]: 38.5 µM
- GI50 [45]: 58.3 µM
- TGI [45]: > 100 µM
- GI50 [46]: 5.05 µM
- TGI [46]: 18.9 µM
- GI50 [47]: 10.1 µM
- TGI [47]: 26.4 µM
- GI50 [48]: 3.55 µM
- TGI [48]: 16.1 µM
- GI50 [49]: 22.8 µM
- TGI [49]: > 100 µM
- GI50 [50]: 8.38 µM
- TGI [50]: 28.5 µM
- GI50 [51]: 11.6 µM
- TGI [51]: 25.4 µM
- GI50 [52]: 4.09 µM
- TGI [52]: 60.2 µM
- GI50 [53]: 11.1 µM
- TGI [53]: 42.7 µM
- GI50 [54]: 11.4 µM
- TGI [54]: > 100 µM
- GI50 [55]: 5.05 µM
- TGI [55]: > 100 µM

SMILES: C=CC(=O)Nc1ccc(C(=O)/C=C/c2ccc(N(C)C)cc2)c(O)c1
- GI50 [1]: 1.97 µM
- TGI [1]: 6.62 µM
- GI50 [2]: 1.49 µM
- TGI [2]: 2.9 µM
- GI50 [3]: 2.55 µM
- TGI [3]: 10.7 µM
- GI50 [4]: 1.46 µM
- TGI [4]: 3.28 µM
- GI50 [56]: 2.41 µM
- TGI [56]: 7.49 µM
- GI50 [5]: 3.07 µM
- TGI [5]: > 100 µM
- GI50 [6]: 4 µM
- TGI [6]: 22.9 µM
- GI50 [7]: 1.76 µM
- TGI [7]: 6.54 µM
- GI50 [8]: 3.51 µM
- TGI [8]: 15.1 µM
- GI50 [9]: 2.8 µM
- TGI [9]: > 100 µM
- GI50 [10]: 3.72 µM
- TGI [10]: 16.1 µM
- GI50 [57]: 3.27 µM
- TGI [57]: 14.8 µM
- GI50 [11]: 3.15 µM
- TGI [11]: 13.3 µM
- GI50 [12]: 5.76 µM
- TGI [12]: 25.8 µM
- GI50 [13]: 1.74 µM
- TGI [13]: 3.79 µM
- GI50 [14]: 3.26 µM
- TGI [14]: > 100 µM
- GI50 [15]: 3.16 µM
- TGI [15]: 11.8 µM
- GI50 [16]: 2.18 µM
- TGI [16]: 7.94 µM
- GI50 [17]: 2.41 µM
- TGI [17]: 8.77 µM
- GI50 [18]: 2.37 µM
- TGI [18]: 7.08 µM
- GI50 [19]: 3.19 µM
- TGI [19]: 12.5 µM
- GI50 [20]: 2.03 µM
- TGI [20]: 8.27 µM
- GI50 [21]: 1.1 µM
- TGI [21]: > 100 µM
- GI50 [22]: 3.49 µM
- TGI [22]: 11.9 µM
- GI50 [23]: 4.08 µM
- TGI [23]: 43.6 µM
- GI50 [24]: 2.56 µM
- TGI [24]: > 100 µM
- GI50 [58]: 1.31 µM
- TGI [58]: 14.3 µM
- GI50 [25]: 2.33 µM
- TGI [25]: 12.6 µM
- GI50 [26]: 2.02 µM
- TGI [26]: 6.44 µM
- GI50 [27]: 1.88 µM
- TGI [27]: 17 µM
- GI50 [28]: 4.57 µM
- TGI [28]: 60.6 µM
- GI50 [29]: 1.61 µM
- TGI [29]: 6.17 µM
- GI50 [30]: 1.78 µM
- TGI [30]: 17 µM
- GI50 [31]: 1.71 µM
- TGI [31]: 3.78 µM
- GI50 [32]: 2.93 µM
- TGI [32]: 12.6 µM
- GI50 [59]: 2.94 µM
- TGI [59]: 11.5 µM
- GI50 [33]: 1.58 µM
- TGI [33]: 3.75 µM
- GI50 [34]: 3.26 µM
- TGI [34]: 14.1 µM
- GI50 [35]: 1.68 µM
- TGI [35]: 4.28 µM
- GI50 [36]: 10.5 µM
- TGI [36]: 36.8 µM
- GI50 [37]: 3.08 µM
- TGI [37]: 12.9 µM
- GI50 [38]: 5.69 µM
- TGI [38]: 37.1 µM
- GI50 [39]: 3.5 µM
- TGI [39]: 18.6 µM
- GI50 [40]: 2.19 µM
- TGI [40]: 10.6 µM
- GI50 [41]: 2.79 µM
- TGI [41]: 13.2 µM
- GI50 [42]: 2.46 µM
- TGI [42]: 11.3 µM
- GI50 [43]: 1.5 µM
- TGI [43]: 3.11 µM
- GI50 [44]: 2.85 µM
- TGI [44]: 10.3 µM
- GI50 [45]: 2.2 µM
- TGI [45]: 6.83 µM
- GI50 [46]: 1.39 µM
- TGI [46]: 5.17 µM
- GI50 [47]: 2.75 µM
- TGI [47]: 10.9 µM
- GI50 [48]: 1.43 µM
- TGI [48]: 3.5 µM
- GI50 [49]: 2.57 µM
- TGI [49]: 16.1 µM
- GI50 [50]: 2.54 µM
- TGI [50]: 8.45 µM
- GI50 [51]: 2.92 µM
- TGI [51]: 14 µM
- GI50 [52]: 9.3 µM
- TGI [52]: 26.7 µM
- GI50 [53]: 2.91 µM
- TGI [53]: 12 µM
- GI50 [54]: 2.73 µM
- TGI [54]: 11.9 µM
- GI50 [55]: 1.67 µM
- TGI [55]: 3.89 µM
